This note sets out measurements from US8653096B2, “Chemokine receptor antagonists and methods of use thereof” (Millennium Pharmaceuticals, Inc., priority 2001, dated 2014).

The first test addresses T1, RANTES/MIP-1α chemokine receptor (CCR1) in THP-1 cell membranes (Homo sapiens, UniProt P32246).
T1 construct: Membranes were prepared from THP-1 cells (ATCC #TIB202); host or cells: THP-1 cells (membrane preparation)
T1 sequence (P32246 1-355): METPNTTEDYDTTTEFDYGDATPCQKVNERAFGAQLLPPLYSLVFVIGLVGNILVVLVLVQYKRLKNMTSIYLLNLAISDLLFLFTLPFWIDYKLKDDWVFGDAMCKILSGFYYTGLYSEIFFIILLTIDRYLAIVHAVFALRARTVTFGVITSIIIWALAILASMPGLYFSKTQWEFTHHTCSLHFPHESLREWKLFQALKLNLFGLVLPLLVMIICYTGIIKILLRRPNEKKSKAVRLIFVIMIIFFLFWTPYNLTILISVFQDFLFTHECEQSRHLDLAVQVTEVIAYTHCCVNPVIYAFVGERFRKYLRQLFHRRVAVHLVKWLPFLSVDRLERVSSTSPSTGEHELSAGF
Kind of test: Receptor binding assay: 125I-RANTES or 125I-MIP-1α binding to THP-1 cell membranes.
Details: not given
`CC(C)NC(=O)Oc1ccc2c(c1)C(=CCCN1CCC(O)(c3ccc(Cl)cc3)C(C)(C)C1)c1cccnc1CO2` (stereo not shown) [Example 547, Isopropyl-carbamic acid 5-{3-[4-(4-chloro-phenyl)-4-hydroxy-3,3-dimethyl-piperidin-1-yl]-propylidene}-5,11-dihydro-10-oxa-1-aza-dibenzo[a,d]cyclohepten-7-yl ester] had an IC50 of under 1000 nM.

The same test, now with this note: inhibitor concentration required for 50% inhibition of specific binding; 125I-RANTES or 125I-MIP-1α as ligand, THP-1 cell membranes; read-out: IC50.
In the case of `CC(C)(O)c1ccc2c(c1)C(=CCCN1CCC(C(=O)NCc3ccc(Cl)cc3)C1)c1cccnc1CO2` (stereo not shown) [Example 530], the half-inhibitory concentration (IC50) was under 20000 nM.
Same read-out and setting: with `CCN(C(=O)C1CCN(CCC=C2c3cc(C(C)(C)O)ccc3OCc3ncccc32)C1)c1ccc(Cl)cc1` (stereo not shown) [Example 531, 1-{3-[7-(1-Hydroxy-1-methyl-ethyl)-11H-10-oxa-1-aza-dibenzo[a,d]cyclohepten-5-ylidene]-propyl}-pyrrolidine-3-carboxylic acid (4-chloro-phenyl)-ethyl-amide] the figure was under 1000 nM; with `CC(C)(O)c1ccc2c(c1)C(=CCCN1CC[C@@H](N3Cc4ccc(Cl)cc4C3)C1)c1cccnc1CO2` [Example 532], under 2000 nM; with `CC(C)(O)c1ccc2c(c1)C(=CCCN1CC[C@@H](N(Cc3ccc(Cl)cc3)C(N)=O)C1)c1cccnc1CO2` [Example 533, (R)-1-(4-Chloro-benzyl)-1-(1-{3-[7-(1-hydroxy-1-methyl-ethyl)-11H-10-oxa-1-aza-dibenzo[a,d]cyclohepten-5-ylidene]-propyl}-pyrrolidin-3-yl)urea], under 10000 nM.
Still for that read-out and setting: with `CC(C)(O)c1ccc2c(c1)C(=CCCN1CC[C@@H](N3CC(=O)Nc4cc(Cl)ccc4C3)C1)c1cccnc1CO2` [Example 534, (R)-8-Chloro-4-(1-{3-[7-(-hydroxy-1-methyl-ethyl)-11H-10-oxa-1-aza-dibenzo[a,d]cyclohepten-5-ylidene]-propyl}-pyrrolidine-3-yl)-1,3,4,5-tetrahydro-benzo[e][1,4]diazepin-2-one] the figure was under 1000 nM; with `CCN1C(=O)CN([C@@H]2CCN(CCC=C3c4cc(C(C)(C)O)ccc4OCc4ncccc43)C2)Cc2ccc(Cl)cc21` [Example 535, (R)-8-Chloro-1-ethyl-4-(1-{3[7-(-hydroxy-1-methyl-ethyl)-11H-10-oxa-1-aza-dibenzo[a,d]cyclohepten-5-ylidene]-propyl}-pyrrolidine-3-yl)-1,3,4,5-tetrahydro-benzo[e][1,4]diazepin-2-one], under 10000 nM; with `COC(=O)CN(Cc1ccc(Cl)cc1)C1CCN(CCC=C2c3cc(C(C)(C)O)ccc3OCc3ncccc32)C1` (stereo not shown) [Example 536, [(4-Chloro-benzyl)-(1-{3-[7-(1-hydroxy-1-methyl-ethyl)-11H-10-oxa-1-aza-dibenzo[a,d]cyclohepten-5-ylidene]-propyl}-pyrrolidin-3-yl)-amino]-acetic acid methyl ester], under 1000 nM.
The same measure, in the same setting: with `CC(C)(O)c1ccc2c(c1)C(=CCCN1CCC(N(CC(=O)O)Cc3ccc(Cl)cc3)C1)c1cccnc1CO2` (stereo not shown) [Example 537, [(4-Chloro-benzyl)-(1-{3-[7-(1-hydroxy-1-methyl-ethyl)-11H-10-oxa-1-aza-dibenzo[a,d]cyclohepten-5-ylidene]-propyl}-pyrrolidin-3-yl)-amino]-acetic acid] the figure was under 1000 nM; with `CC(C)(O)c1ccc2c(c1)C(=CCCN1CCN(c3ccc(Cl)c(Cl)c3)CC1)c1cccnc1CO2` [Example 538, 2-(5-{3-[4-(3,4-Dichloro-phenyl)-piperazin-1-yl]-propylidene}-5,11-dihydro-10-oxa-1-aza-dibenzo[a,d]cyclohepten-7-yl)-propan-2-ol], under 10000 nM.
For `Cc1cc(Cl)ccc1N1CCN(CCC=C2c3cc(C(C)(C)O)ccc3OCc3ncccc32)CC1` [Example 539, 2-(5-{3-[4-(4-Chloro-2-methyl-phenyl)-piperazin-1-yl]-propylidene}-5,11-dihydro-10-oxa-1-aza-dibenzo[a,d]cyclohepten-7-yl)-propan-2-ol], the half-maximal inhibitory concentration (IC50) is under 10000 nM.
In the case of `CC(C)(O)c1ccc2c(c1)C(=CCCN1CCN(c3ccc(Cl)cc3C#N)CC1)c1cccnc1CO2` [Example 540, 5-Chloro-2-(4-{3-[7-(1-hydroxy-1-methyl-ethyl)-11H-10-oxa-1-aza-dibenzo[a,d]cyclohepten-5-ylidene]-propyl}-piperazin-1-yl)-benzonitrile], the half-maximal inhibitory concentration (IC50) was under 10000 nM.
Consider `COC(=O)c1cc(Cl)ccc1N1CCN(CCC=C2c3cc(C(C)(C)O)ccc3OCc3ncccc32)CC1` [Example 541, 5-Chloro-2-(4-{3-[7-(1-hydroxy-1-methyl-ethyl)-11H-10-oxa-1-aza-dibenzo[a,d]cyclohepten-5-ylidene]-propyl}-piperazin-1-yl)-benzoic acid methyl ester], for which the IC50 was under 10000 nM.
On the same count and under the same terms, with `CC(C)(O)c1ccc2c(c1)C(=CCCN1CCC(NC(=O)Cc3ccc(Cl)cc3)CC1)c1cccnc1CO2` [Example 542, 2-(4-Chloro-phenyl)-N-(1-{3-[7-(1-hydroxy-1-methyl-ethyl)-11H-10-oxa-1-azadibenzo[a,d]cyclohepten-5-ylidene]-propyl}-piperidin-4-yl)-acetamide] the figure was under 10000 nM.
Regarding `CCN(CCC=C1c2cc(C(C)(C)O)ccc2OCc2ncccc21)CCN(CC)c1ccc(Cl)cc1` [Example 543, 2-{5-[3-({2-[(4-Chloro-phenyl)-ethyl-amino]-ethyl}-ethyl-amino)-propylidene]-5,11-dihydro-10-oxa-1-aza-dibenzo[a,d]cyclohepten-7-yl}-propan-2-ol], the half-inhibitory concentration (IC50) is under 10000 nM.
Same read-out and setting: as for `CC(C)(O)c1ccc2c(c1)C(=CCCN1CCN(c3ccc(Cl)cc3)C(C(N)=O)C1)c1cccnc1CO2` (stereo not shown) [Example 544, 1-(4-Chloro-phenyl)-4-{3-[7-(1-hydroxy-1-methyl-ethyl)-11H-10-oxa-1-aza-dibenzo[a,d]cyclohepten-5-ylidene]-propyl}-piperazine-2-carboxylic acid amide], the figure is under 10000 nM; as for `CC(C)(O)c1ccc2c(c1)C(=CCCN1CCN(c3ccc(Cl)cc3)C(C#N)C1)c1cccnc1CO2` (stereo not shown) [Example 545, 1-(4-Chloro-phenyl)-4-{3-[7-(1-hydroxy-1-methyl-ethyl)-11H-10-oxa-1-aza-dibenzo[a,d]cyclohepten-5-ylidene]-propyl}-piperazine-2-carbonitrile], under 10000 nM; as for `COC(=O)C1CN(CCC=C2c3cc(C(C)(C)O)ccc3OCc3ncccc32)CCN1c1ccc(Cl)cc1` (stereo not shown) [Example 546, 1-(4-Chloro-phenyl)-4-{3-[7-(1-hydroxy-1-methyl-ethyl)-11H-10-oxa-1-aza-dibenzo[a,d]cyclohepten-5-ylidene]-propyl}-piperazine-2-carboxylic acid methyl ester], under 1000 nM.
With `CCN(C(=O)Nc1ccc(Cl)cc1)C1CCN(CCC=C2c3cc(C(C)(C)O)ccc3OCc3ncccc32)C1` (stereo not shown) [Example 548, 3-(4-Chloro-phenyl)-1-ethyl-1-(1-{3-[7-(1-hydroxy-1-methyl-ethyl)-11H-10-oxa-1-aza-dibenzo[a,d]cyclohepten-5-ylidene]-propyl}-pyrrolidin-3-yl)-urea], the IC50 is under 10000 nM.
On the same count and under the same terms, with `CC(C)(O)c1ccc2c(c1)C(=CCCN1CCC(OCc3ccc(Cl)cc3)C1)c1cccnc1CO2` (stereo not shown) [Example 549, 2-(5-{3-[3-(4-Chloro-benzyloxy)-pyrrolidin-1-yl]-propylidene}-5,11-dihydro-10-oxa-1-aza-dibenzo[a,d]cyclohepten-7-yl)-propan-2-ol] the figure was under 1000 nM; with `CC(C)CN(Cc1ccc(Cl)cc1)C1CCN(CCC=C2c3cc(C(C)(C)O)ccc3OCc3ncccc32)C1` (stereo not shown) [Example 550, 2-[5-(3-{3-[(4-Chloro-benzyl)-isobutyl-amino]-pyrrolidin-1-yl}-propylidene)-5,11-dihydro-10-oxa-1-aza-dibenzo[a,d]cyclohepten-7-yl]-propan-2-ol], under 1000 nM.
The same measure, in the same setting: with `CC(C)N(Cc1ccc(Cl)cc1)C1CCN(CCC=C2c3cc(C(C)(C)O)ccc3OCc3ncccc32)C1` (stereo not shown) [Example 551, 2-[5-(3-{3-[(4-Chloro-benzyl)-isopropyl-amino]-pyrrolidin-1-yl}-propylidene)-5,11-dihydro-10-oxa-1-aza-dibenzo[a,d]cyclohepten-7-yl]-propan-2-ol] the figure was under 1000 nM.
On the same count and under the same terms, as for `CC(C)(O)c1ccc2c(c1)C(=CCCN1CCC(N(CC(N)=O)Cc3ccc(Cl)cc3)C1)c1cccnc1CO2` (stereo not shown) [Example 552, 2-[(4-Chloro-benzyl)-(1-{3-[7-(1-hydroxy-1-methyl-ethyl)-11H-10-oxa-1-azadibenzo[a,d]cyclohepten-5-ylidene]-propyl}-pyrrolidin-3-yl)-amino]-acetamide], the figure is under 1000 nM; as for `CCNC(=O)CN(Cc1ccc(Cl)cc1)C1CCN(CCC=C2c3cc(C(C)(C)O)ccc3OCc3ncccc32)C1` (stereo not shown) [Example 553, 2-[(4-Chloro-benzyl)-(1-{3-[7-(1-hydroxy-1-methyl-ethyl)-11H-10-oxa-1-aza-dibenzo[a,d]cyclohepten-5-ylidene]-propyl}-pyrrolidin-3-yl)-amino]-N-ethyl-acetamide], under 1000 nM.
For the molecule `CC(C)(O)c1ccc2c(c1)C(=CCCN1CCC(N(CCO)Cc3ccc(Cl)cc3)C1)c1cccnc1CO2` (stereo not shown) [Example 554, 2-[5-(3-{3-[(4-Chloro-benzyl)-(2-hydroxy-ethyl)-amino]-pyrrolidin-1-yl}-propylidene)-5,11-dihydro-10-oxa-1-aza-dibenzo[a,d]cyclohepten-7-yl]-propan-2-ol], the half-maximal inhibitory concentration (IC50) was under 1000 nM.
